Experiments:
[1] = FDO stability under the diet making conditions; format: physicochemical; conditions: mixed with ground Purina Mouse Chow, 70° C. for 3 hours under vacuum; ethanol extract, HPLC and UV absorption
Experimental: (§1) Three key parameters were measured prior to starting the study: (a) FDO stability under the diet making conditions (70° C. for 3 hours under vacuum), (b) FDO stability to stomach pH (approximately pH 1), and (c) FDO absorbed intact into the blood stream of the mouse. The following were the outcomes: • (a) The FDO was mixed with ground Purina Mouse Chow® and heated to 70° C. for 3 hours under vacuum; the FDO was then extracted from the chow with ethanol and assayed by HPLC and by UV absorption spectrum. […]

[2] = FDO stability to stomach pH; format: physicochemical; conditions: 2:1:1 ethanol:propylene glycol:water at pH 1 (HCl); HPLC and UV absorption
Experimental: as §1

[3] = FDO absorbed intact into the blood stream of the mouse; format: in vivo; conditions: Skh mice fed chow containing 0.01% 14C-FDO for 14 days; blood analyzed by HPLC
Experimental: as §1

[4] = FDO content of FDO-containing diets during storage over the study; format: physicochemical; conditions: diets stored at 4° C., sampled at 3 month intervals over approximately two years; UV absorption
Experimental: (§2) The FDO-containing and control diets were prepared by Teklad (Madison, Wis.) by addition of FDO to standard Purina Mouse Chow®. Diets were stored at 4° C. in sealed containers until used. The levels of FDO in the diets were 0%, 0.01%, and 0.1%.
At 3 month intervals throughout the study, samples of the FDO-containing Purina Mouse Chow® were ground and extracted with ethanol; the ethanol was then analyzed for FDO content by UV absorption (obtaining the absorption spectrum versus the FDO standard and then determining level of FDO at the peak absorption).

[5] = test system: female albino Skh:HR-1 hairless mice; assay: Effect of dietary FDO on mouse average life span (survival); format: in vivo; conditions: for Mean survival: control 553 days
Experimental: Forty eight (48) female albino Skh:HR-1 hairless mice were obtained from Charles River Laboratories (Portage, Mich.). At the start of the study, the mice were approximately 20 weeks old. The mice were housed four to a standard plastic cage and given feed and water ad libitum. Sixteen (16) mice were placed on each of the three test diets described below.
The 2-Furildioxime (FDO) was obtained from Aldrich Chemical Co. (Milwaukee, Wis.).
as §2
Throughout the study, mouse weights, food consumption, and date of death were recorded.

[6] = 0.01% and 0.1% FDO diets vs. 0% control diet

ON=C(C(=NO)c1ccco1)c1ccco1 [FDO, 2-furildioxime]
loss of FDO under diet making conditions [1]: no detectable loss
loss of FDO at stomach pH [2]: no detectable loss
FDO in blood after dietary administration [3]: Intact FDO was detected
loss of FDO from the diets [4]: no detectable loss
% Increase in Survival Time ([5]; 0.01% FDO diet vs. control diet, p = 0.05): 14%
Mean survival ([5]; 0.01% FDO diet, p = 0.05 vs. control): 632 days
mouse body weights [5, 6]: not different
mouse food consumption [5, 6]: not different
% Increase in Survival Time ([5]; 0.1% FDO diet vs. control diet, p = 0.02): 20%
Mean survival ([5]; 0.1% FDO diet, p = 0.02 vs. control): 664 days
death from all causes ([5]; FDO-fed mice): delayed to a later date
differences in the causes of death among the diet groups ([5]; autopsy, 0.01% and 0.1% FDO diets vs. control): not any differences
life span relative to the control diet ([5]; both FDO diets (0.01% and 0.1%), statistical analysis): significantly increased
appearance or behavioral differences ([5]; daily observation, 0.01% and 0.1% FDO diets vs. control): No differences
